Structures can show the parent of a compound that is named as a salt.
Target: Sphingosine 1-phosphate receptor 1 (Homo sapiens, UniProt P21453)
Test: direct activation of human S1P1 – cell-based, agonist mode, 60K MLSMR set, dose response (AID 468)
Conditions: not given

Sequence of Sphingosine 1-phosphate receptor 1 (P21453 whole entry): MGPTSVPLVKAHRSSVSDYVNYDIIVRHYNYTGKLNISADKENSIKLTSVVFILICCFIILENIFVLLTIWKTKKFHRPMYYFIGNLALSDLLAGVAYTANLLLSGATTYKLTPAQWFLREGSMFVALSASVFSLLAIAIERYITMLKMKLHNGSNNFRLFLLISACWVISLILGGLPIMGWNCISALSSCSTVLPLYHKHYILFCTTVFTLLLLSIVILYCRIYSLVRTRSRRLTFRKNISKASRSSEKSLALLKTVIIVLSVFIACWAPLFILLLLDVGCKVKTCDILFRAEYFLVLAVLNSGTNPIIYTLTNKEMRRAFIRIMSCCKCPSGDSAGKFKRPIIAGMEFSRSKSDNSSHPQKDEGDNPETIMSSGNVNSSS

| Compound | EC50 |
| --- | --- |
| COc1ccccc1Oc1ccc2c(c1)C(=O)N(c1cccc(O)c1)C2=O [2-(3-hydroxyphenyl)-5-(2-methoxyphenoxy)isoindole-1,3-dione] | 2.36 µM |
| Clc1ccc(OCc2nnc(SCc3nc4ccccc4[nH]3)n2Cc2ccco2)cc1 [2-[[[5-[(4-chlorophenoxy)methyl]-4-(2-furanylmethyl)-1,2,4-triazol-3-yl]thio]methyl]-1H-benzimidazole] | 7.6 µM |
| O=c1c(-c2ccc3c(c2)OCCO3)c(C(F)(F)F)oc2cc(O)cc(O)c12 [3-(2,3-dihydro-1,4-benzodioxin-6-yl)-5,7-bis(oxidanyl)-2-(trifluoromethyl)chromen-4-one] | 4.13 µM |
| NC(=O)c1ccc(OCC(F)(F)C(F)(F)C(F)(F)C(F)(F)C(F)(F)C(F)F)cc1 [4-(2,2,3,3,4,4,5,5,6,6,7,7-dodecafluoroheptoxy)benzamide] | 8 µM |
| Oc1ccc(N2CCN(c3ncnc4sc5c(c34)CCC5)CC2)cc1 [4-[4-(7,8-dihydro-6H-cyclopenta[4,5]thieno[1,2-c]pyrimidin-1-yl)-1-piperazinyl]phenol] | 9.07 µM |
| O=C(CSc1nnc(-c2c[nH]c3ccccc23)o1)N(Cc1ccccc1)c1ccc(F)cc1 | 1.02 µM |
| Cc1ccccc1OCCCCc1c(C)n[nH]c1C [SMR000103095] | 6.74 µM |
| CCN(C(=O)C1CCCCC1)c1nnc(-c2cccnc2)s1 [Cyclohexanecarboxylic acid ethyl-(5-pyridin-3-yl-[1,3,4]thiadiazol-2-yl)-amide] | 2.13 µM |
| N#CCCS(=O)(=O)c1nnnn1-c1ccccc1 [3-(1-phenyltetrazol-5-yl)sulfonylpropanenitrile] | 3.66 µM |
| Cc1nc2ccccc2c2oc(C(=O)NCC3COc4ccccc4O3)cc12 (stereo not drawn) [MLS000118430] | 8.06 µM |
| Cc1ccc2[nH]c3c(N4CCN(Cc5ccc6c(c5)OCO6)CC4)ncnc3c2c1 | > 30 µM |
| O=C(Nc1ccc(C(F)(F)F)cc1)C1CCCN1S(=O)(=O)c1cccc2cccnc12 (stereo not drawn) [1-(8-quinolinylsulfonyl)-N-[4-(trifluoromethyl)phenyl]-2-pyrrolidinecarboxamide] | 9.86 µM |
| COc1ccccc1OCc1nc(C#N)c(N2CC(C)CC(C)C2)o1 (stereo not drawn) [5-(3,5-dimethyl-1-piperidinyl)-2-[(2-methoxyphenoxy)methyl]-4-oxazolecarbonitrile] | 4.02 µM |
| COCCn1c(C)cc(C(=O)CSc2nc3ccccc3c(=O)[nH]2)c1C [2-[[2-[1-(2-methoxyethyl)-2,5-dimethyl-3-pyrrolyl]-2-oxoethyl]thio]-1H-quinazolin-4-one] | 61.2 µM |
| CCC(NC(C)c1ccccc1)=C1C(=O)N(C)C(=O)N(C)C1=O (stereo not drawn) [SMR000043429] | 13.6 µM |
| Cc1cc(C(=O)CSc2nnc(-c3cccnc3)n2-c2ccccc2F)c(C)n1C [SMR000064090] | 0.817 µM |
| CCOc1ccc(-c2nnc(-c3cccs3)o2)cc1OCC [2-(3,4-Diethoxy-phenyl)-5-thiophen-2-yl-[1,3,4]oxadiazole] | 5.93 µM |
| COc1ccc(-c2nc(-c3ccccc3OC)no2)cc1OC [5-(3,4-dimethoxyphenyl)-3-(2-methoxyphenyl)-1,2,4-oxadiazole] | 0.166 µM |
| COc1ccccc1N=C(N)Nc1nc(CSc2ccc(C)cc2)cc(=O)[nH]1 [1-(2-methoxyphenyl)-2-[6-[[(4-methylphenyl)thio]methyl]-4-oxo-1H-pyrimidin-2-yl]guanidine] | 7.29 µM |
| Clc1ccc(CCNc2[nH]cnc3ncnc2-3)cc1 [SMR000017624] | 9.86 µM |
| COc1ccc(CNC(=O)c2cc3c(C)nc4ccccc4c3o2)c(OC)c1 [MLS000118441] | 4.2 µM |
| COC(=O)Cc1sc(=O)[nH]c1Nc1ccccc1 [MLS000111966] | > 95 µM |

| Compound | EC50 |
| --- | --- |
| CN(C)c1ccnc2sc3c(=O)n(Cc4ccccc4)cnc3c12 [3-Benzyl-9-dimethylamino-3H-pyrido[3',2':4,5]thieno[3,2-d]pyrimidin-4-one] | 2.47 µM |
| O=C(Nc1ccc(OC(F)F)c(Cl)c1)Nc1ccc2c(c1)OCO2 [1-(1,3-benzodioxol-5-yl)-3-[3-chloro-4-(difluoromethoxy)phenyl]urea] | 7.77 µM |
| Cc1csc(SCC(=O)c2cc(C)n(Cc3cccs3)c2C)n1 [1-[2,5-dimethyl-1-(2-thenyl)pyrrol-3-yl]-2-[(4-methylthiazol-2-yl)thio]ethanone] | 6.76 µM |
| COc1ccccc1Oc1ccc2c(c1)C(=O)N(c1ccc(O)cc1)C2=O [2-(4-hydroxyphenyl)-5-(2-methoxyphenoxy)isoindole-1,3-dione] | 0.217 µM |
| Cc1ccc(-n2c(C)cc(C(=O)COC(=O)c3c(C)noc3C)c2C)cc1 [3,5-dimethyl-4-isoxazolecarboxylic acid [2-[2,5-dimethyl-1-(4-methylphenyl)-3-pyrrolyl]-2-oxoethyl] ester] | 8.31 µM |
| CC(C)c1ccc2oc(-c3ccc(N)cc3)nc2c1 [4-(5-propan-2-yl-1,3-benzoxazol-2-yl)aniline] | 2.64 µM |
| CCCOc1ccc(-c2nnc(-c3ccncc3)o2)cc1 [2-(4-propoxyphenyl)-5-(4-pyridyl)-1,3,4-oxadiazole] | > 95 µM |
| COC(=O)c1ccc(OCC(O)Cn2nnc3ccccc32)cc1 (stereo not drawn) [4-[3-(1-benzotriazolyl)-2-hydroxypropoxy]benzoic acid methyl ester] | > 95 µM |
| Nc1ccc(N2CCCCCC2)cc1 [4-(1-azepanyl)aniline;hydrochloride] | > 10 µM |
| Cc1cc2nc(-c3ccc(NC(=O)C(C)C)cc3)oc2cc1C [MLS000109473] | 3.04 µM |
| Cn1nc(C(C)(C)C)cc1C(=O)NCc1ccc(N2CCCC2=O)cc1 [5-tert-Butyl-2-methyl-2H-pyrazole-3-carboxylic acid 4-(2-oxo-pyrrolidin-1-yl)-benzylamide] | 3.86 µM |
| CCC(NC(=O)Nc1nnc(C(F)(F)F)s1)(C(F)(F)F)C(F)(F)F | > 95 µM |
| CCOc1nc(C)ccc1-c1noc(-c2ccncc2)n1 [2-ethoxy-6-methyl-3-[5-(4-pyridinyl)-1,2,4-oxadiazol-3-yl]pyridine] | 5.42 µM |
| Cc1ccc2c(c1)[nH]c1c(N3CCN(Cc4ccccc4)CC3)ncnc12 [SMR000044826] | 3.27 µM |
| COc1ccc(C(=O)C2C(=O)C(=O)N(CC3CCCO3)C2c2cccc(OC)c2)cc1 (stereo not drawn) [(4Z)-4-[hydroxy-(4-methoxyphenyl)methylene]-5-(3-methoxyphenyl)-1-(tetrahydrofurfuryl)pyrrolidine-2,3-quinone] | > 95.1 µM |
| COc1ccc(N2CCn3c2nc2c3c(=O)n(CCCc3ccccc3)c(=O)n2C)c(OC)c1 [6-(2,4-dimethoxyphenyl)-4-methyl-2-(3-phenylpropyl)-7,8-dihydropurin[7,8-a]imidazole-1,3-quinone] | 5.83 µM |
| c1ccc(CN2CCN(c3ncnc4c3[nH]c3ccccc34)CC2)cc1 [MLS000078384] | 4.18 µM |
| Fc1ccccc1COc1ccc(C=Nn2cnnc2)cc1 [1-[4-[(2-fluorophenyl)methoxy]phenyl]-N-(1,2,4-triazol-4-yl)methanimine] | 4.62 µM |
| CC(=O)c1ccc(NC(=O)N2CCN(c3cccc(Cl)c3)CC2)cc1 [4-(3-chlorophenyl)-N-(4-ethanoylphenyl)piperazine-1-carboxamide] | 9.76 µM |
| Cc1nn(C(=O)c2cccs2)c(N)c1-c1ccccc1 [(5-amino-3-methyl-4-phenyl-1-pyrazolyl)-thiophen-2-ylmethanone] | 7.24 µM |
| O=C(CSC1=NCCS1)Nc1ccnc2ccccc12 [2-(4,5-dihydro-1,3-thiazol-2-ylsulfanyl)-N-quinolin-4-yl-ethanamide] | 2.44 µM |

Same assay, conditions: inactive by the depositor's call

| Compound | EC50 |
| --- | --- |
| COc1cccc(-c2nnc3sc(C4CCCCC4)nn23)c1 [6-cyclohexyl-3-(3-methoxyphenyl)-[1,2,4]triazolo[3,4-b][1,3,4]thiadiazole] | 17.4 µM |
| Nc1c(C(=O)NC2CCCC2)sc2nc(-c3cccs3)ccc12 [3-Amino-6-thiophen-2-yl-thieno[2,3-b]pyridine-2-carboxylic acid cyclopentylamide] | 14.4 µM |
| CC(C)(CC(=O)N1CCN(c2ccc(Cl)cc2)CC1)CC1=NS(=O)(=O)c2ccccc2N1 [1-[4-(4-chlorophenyl)-1-piperazinyl]-4-(1,1-dioxo-4H-1,2,4-benzothiadiazin-3-yl)-3,3-dimethyl-1-butanone] | 10.5 µM |
| COC(=O)c1ccc(C(c2c(N)n(CC(C)C)c(=O)[nH]c2=O)N2CCN(c3ccccc3)CC2)cc1 (stereo not drawn) [4-[[6-amino-1-(2-methylpropyl)-2,4-dioxo-5-pyrimidinyl]-(4-phenyl-1-piperazinyl)methyl]benzoic acid methyl ester] | 95 µM |
| Cc1noc(C)c1S(=O)(=O)N(CC(=O)Nc1ccc2c(c1)OCCO2)c1ccc(C(C)C)cc1 [MLS000117406] | 14.2 µM |
| CC1Cc2cc(-c3csc(NC(=O)Cc4cccs4)n3)ccc2N1S(C)(=O)=O (stereo not drawn) [MLS000027766] | 11.8 µM |
| N#C/C(=C/c1ccc(N2CCCCCC2)o1)c1ccc(F)cc1 [MLS000051438] | 22.4 µM |
| COc1ccc2ncn(-c3ccccc3)c2c1 [6-methoxy-1-phenyl-1H-1,3-benzodiazole] | 16.1 µM |
| Cc1n[nH]c(C)c1N1C(=O)c2cccc3c(N4CCCCCC4)ccc(c23)C1=O | 13.8 µM |
| CCN(CC)S(=O)(=O)c1cccc(S(=O)(=O)c2cccc(S(=O)(=O)N(CC)CC)c2)c1 [3-[3-(diethylsulfamoyl)phenyl]sulfonyl-N,N-diethyl-benzenesulfonamide] | 19.3 µM |
| CCOC(=O)Cc1csc(NC(=O)c2ccc(Br)s2)n1 [2-[2-[(5-bromothiophene-2-carbonyl)amino]thiazol-4-yl]acetic acid ethyl ester] | 13.8 µM |
| CCOC(=O)c1sc2nc(NC(=O)C(C)(C)C)sc2c1C [2-[(2,2-dimethyl-1-oxopropyl)amino]-6-methyl-5-thieno[2,3-d]thiazolecarboxylic acid ethyl ester] | 12 µM |
| COc1ccc(-c2cn3c(C)c(C(=O)N4CCCc5ccccc54)sc3n2)cc1 [3,4-dihydro-2H-quinolin-1-yl-[6-(4-methoxyphenyl)-3-methyl-2-imidazo[2,1-b]thiazolyl]methanone] | 50.5 µM |
| CCN(CC)c1ccc(-n2c(C)c(C(C)=O)c(C(C)=O)c2C)cc1 [1-[1-[4-(diethylamino)phenyl]-4-ethanoyl-2,5-dimethyl-pyrrol-3-yl]ethanone] | 11.4 µM |
| CCc1ccc2c(COC(=O)c3n[nH]c4ccccc34)cc(=O)oc2c1 [(7-ethyl-2-oxochromen-4-yl)methyl 1H-indazole-3-carboxylate] | 10.6 µM |

Source: BindingDB's records for doi:10.7270/Q2251GJ9 (The Scripps Research Institute Molecular Screening Center, 2007)
